Experimental data as given in PubChem BioAssay AID330 (DTP/NCI, 2004).
“And” between values parts separate entries of the source, which are not always exact repeats. Equal entries are not always repeated. Toxic doses and inconclusive results are not listed. How the source made its calls: active means survival T/C of 150% or more; inactive means T/C below 125% in these data.

Tested on: P388 leukemia ip, CD2F1 mice, survival T/C
Assay: NCI In Vivo Anticancer Drug Screen. Data for tumor model P388 Leukemia (intraperitoneal) in CD2F1 (CDF1) mice
Settings: endpoint: median survival time, higher = longer survival
Procedure, shortened: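 Mice carrying the transplanted tumor received test compound or vehicle. Survival was recorded in each group, and the value is the treated-group measurement divided by that of the vehicle-treated control group.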

[1] = dose: 50.0 mg/kg/injection, schedule: Q01DX005 (ip), vehicle: Klucel (hydroxypropylcellulose) (HPC)
[2] = dose: 100.0 mg/kg/injection, schedule: Q01DX005 (ip), vehicle: Klucel (hydroxypropylcellulose) (HPC)
[3] = dose: 200.0 mg/kg/injection, schedule: Q01DX005 (ip), vehicle: Klucel (hydroxypropylcellulose) (HPC)
[4] = dose: 12.5 mg/kg/injection, schedule: Q01DX009 (ip), vehicle: water
[5] = dose: 25.0 mg/kg/injection, schedule: Q01DX009 (ip), vehicle: water
[6] = dose: 50.0 mg/kg/injection, schedule: Q01DX009 (ip), vehicle: water

Measured: T/C

NC(=O)c1nnn2c1nc(N)c1cc(Cl)ccc12
inactive: [1] 100 % of control | [2] 104 % of control | [3] 99 % of control

O=C1CCC2(CC1C1C=CCC1)OCCO2 (centres undefined)
inactive: dose: 100.0 mg/kg/injection, schedule: Q01DX009 (ip), vehicle: saline sonified 100 % of control | dose: 200.0 mg/kg/injection, schedule: Q01DX009 (ip), vehicle: saline sonified 116 % of control | dose: 400.0 mg/kg/injection, schedule: Q01DX009 (ip), vehicle: saline sonified 100 % of control

COc1cccc(Cc2ccncc2)c1OC
inactive: [4] 101 % of control | [5] 100 % of control | [6] 100 % of control | dose: 100.0 mg/kg/injection, schedule: Q01DX009 (ip), vehicle: water 102 % of control | dose: 200.0 mg/kg/injection, schedule: Q01DX009 (ip), vehicle: water 103 % of control

Oc1ccc(O)c(Cl)c1Cl
inactive: dose: 12.5 mg/kg/injection, schedule: Q01DX009 (ip), vehicle: saline 105 % of control | dose: 25.0 mg/kg/injection, schedule: Q01DX009 (ip), vehicle: saline 98 % of control | dose: 25.0 mg/kg/injection, schedule: Q04DX003 (ip), vehicle: saline 106 % of control and 113 % of control | dose: 50.0 mg/kg/injection, schedule: Q01DX009 (ip), vehicle: saline 96 % of control | dose: 50.0 mg/kg/injection, schedule: Q04DX003 (ip), vehicle: saline 100 % of control and 120 % of control | dose: 100.0 mg/kg/injection, schedule: Q01DX009 (ip), vehicle: saline 104 % of control | dose: 100.0 mg/kg/injection, schedule: Q04DX002 (ip), vehicle: saline + alcohol 108 % of control | dose: 100.0 mg/kg/injection, schedule: Q04DX003 (ip), vehicle: saline 101 % of control and 118 % of control | dose: 200.0 mg/kg/injection, schedule: Q04DX002 (ip), vehicle: saline + alcohol 108 % of control | dose: 200.0 mg/kg/injection, schedule: Q04DX003 (ip), vehicle: saline 105 % of control | dose: 400.0 mg/kg/injection, schedule: Q04DX002 (ip), vehicle: saline + alcohol 99 % of control

COc1ccc2nc(NN=O)sc2c1
inactive: dose: 1.56 mg/kg/injection, schedule: Q01DX009 (ip), vehicle: water 92 % of control | dose: 3.12 mg/kg/injection, schedule: Q01DX009 (ip), vehicle: water 101 % of control and 103 % of control | dose: 6.25 mg/kg/injection, schedule: Q01DX009 (ip), vehicle: water 100 % of control and 92 % of control | [4] 100 % of control and 101 % of control | [5] 104 % of control and 97 % of control | [6] 111 % of control

ClCC1(CCl)COC(c2ccccc2)OC1
inactive: dose: 100.0 mg/kg/injection, schedule: Q01DX009 (ip), vehicle: saline with Tween-80 100 % of control | dose: 200.0 mg/kg/injection, schedule: Q01DX009 (ip), vehicle: saline with Tween-80 100 % of control | dose: 400.0 mg/kg/injection, schedule: Q01DX009 (ip), vehicle: saline with Tween-80 95 % of control

CC1(C)OC2COC3OC(C)(C)OC3(/C=N\NC(=O)c3cc4cc(OCc5ccccc5)ccc4[nH]3)C2O1 (centres undefined)
inactive: [1] 101 % of control | [2] 95 % of control | [3] 97 % of control
